Bounds are passed on as bounds.

For five compounds, MIC results are on record in patent US12295936B2, “Immunomodulating urea azalides” (Zoetis Services LLC, priority 2020, dated 2025).

For this assay, the system named is BRD pathogens, M. haemolytica and P. multocida. Kind of assay: MIC screening panel of BRD pathogens (antibacterial / non-antibacterial). The note with it: read-out: antibacterial / non-antibacterial (MIC for the BRD pathogens).
As to `CC[C@H]1OC(=O)[C@H](C)[C@@H](O)[C@H](C)[C@@H](O[C@@H]2O[C@H](C)C[C@H](N(C)C(=O)Nc3ccc(C#N)cc3)[C@H]2O)[C@](C)(O)C[C@@H](C)CN[C@H](C)[C@@H](O)[C@]1(C)O` [Example A-9, 3-(4-cyanophenyl)-1-((2S,3R,4S,6R)-2-(((2R,3S,4R,5R,8R,10R,11R,12S,13S,14R)-2-ethyl-3,4,10,13-tetrahydroxy-3,5,8,10,12,14-hexamethyl-15-oxo-1-oxa-6-azacyclopentadecan-11-yl)oxy)-3-hydroxy-6-methyltetrahydro-2H-pyran-4-yl)-1-methylurea], the MIC was over 64 µg/mL.

Turning to `CC[C@H]1OC(=O)[C@H](C)[C@@H](O[C@H]2C[C@@](C)(OC)[C@](O)(CC#N)[C@H](C)O2)[C@H](C)[C@@H](O[C@@H]2O[C@H](C)C[C@H](N(C)C(=O)Nc3ccccc3)[C@H]2O)[C@](C)(O)C[C@@H](C)CN[C@H](C)[C@@H](O)[C@]1(C)O` [Example G-1, 1-((2S,3R,4S,6R)-2-(((2R,3S,4R,5R,8R,10R,11R,12S,13S,14R)-13-(((2R,4R,5S,6S)-5-(cyanomethyl)-5-hydroxy-4-methoxy-4,6-dimethyltetrahydro-2H-pyran-2-yl)oxy)-2-ethyl-3,4,10-trihydroxy-3,5,8,10,12,14-hexamethyl-15-oxo-1-oxa-6-azacyclopentadecan-11-yl)oxy)-3-hydroxy-6-methyltetrahydro-2H-pyran-4-yl)-1-methyl-3-phenylurea], the MIC was over 64 µg/mL. `CC[C@H]1OC(=O)[C@H](C)[C@@H](O[C@H]2C[C@@](C)(OC)[C@](O)(CN3CCN(c4ncccn4)CC3)[C@H](C)O2)[C@H](C)[C@@H](O[C@@H]2O[C@H](C)C[C@H](N(C)C(=O)N(C)c3ccccc3)[C@H]2O)[C@](C)(O)C[C@@H](C)CN[C@H](C)[C@@H](O)[C@]1(C)O` [Example J-13, 1-((2S,3R,4S,6R)-2-(((2R,3S,4R,5R,8R,10R,11R,12S,13S,14R)-2-ethyl-3,4,10-trihydroxy-13-(((2R,4R,5S,6S)-5-hydroxy-4-methoxy-4,6-dimethyl-5-((4-(pyrimidin-2-yl)piperazin-1-yl)methyl)tetrahydro-2H-pyran-2-yl)oxy)-3,5,8,10,12,14-hexamethyl-15-oxo-1-oxa-6-azacyclopentadecan-11-yl)oxy)-3-hydroxy-6-methyltetrahydro-2H-pyran-4-yl)-1,3-dimethyl-3-phenylurea]: the MIC was over 64 µg/mL. `CCCNC[C@]1(O)[C@H](C)O[C@@H](O[C@H]2[C@H](C)[C@@H](O[C@@H]3O[C@H](C)C[C@H](N(C)C(=O)NCCN(C)C)[C@H]3O)[C@](C)(O)C[C@@H](C)CN[C@H](C)[C@@H](O)[C@](C)(O)[C@@H](CC)OC(=O)[C@@H]2C)C[C@@]1(C)OC` [Example H-6, 3-(2-(dimethylamino)ethyl)-1-((2S,3R,4S,6R)-2-(((2R,3S,4R,5R,8R,10R,11R,12S,13S,14R)-2-ethyl-3,4,10-trihydroxy-13-(((2R,4R,5S,6S)-5-hydroxy-4-methoxy-4,6-dimethyl-5-((propylamino)methyl)tetrahydro-2H-pyran-2-yl)oxy)-3,5,8,10,12,14-hexamethyl-15-oxo-1-oxa-6-azacyclopentadecan-11-yl)oxy)-3-hydroxy-6-methyltetrahydro-2H-pyran-4-yl)-1-methylurea]: the MIC was over 64 µg/mL. The value for `CC[C@H]1OC(=O)[C@H](C)[C@@H](O)[C@H](C)[C@@H](O[C@@H]2O[C@H](C)C[C@H](N(C)C(=O)Nc3cccnc3)[C@H]2O)[C@](C)(O)C[C@@H](C)CN[C@H](C)[C@@H](O)[C@]1(C)O` [Example A-4, 1-((2S,3R,4S,6R)-2-(((2R,3S,4R,5R,8R,10R,11R,12S,13S,14R)-2-ethyl-3,4,10,13-tetrahydroxy-3,5,8,10,12,14-hexamethyl-15-oxo-1-oxa-6-azacyclopentadecan-11-yl)oxy)-3-hydroxy-6-methyltetrahydro-2H-pyran-4-yl)-1-methyl-3-(pyridin-3-yl)urea] was over 64 µg/mL.
